# In PMC5428509, “Irreversible inhibition of BTK kinase by a novel highly selective inhibitor CHMFL-BTK-11 suppresses inflammatory response in rheumatoid arthritis model” (Scientific Reports, 2017):
# Columns and labels:
# Experiment in all cases: biochemical
# Set-up in all cases: KinomeScan competition binding panel (DiscoveRx), percent of control at 1 uM
# Conditions in all cases: read-out: Percent Control
# [1] = target: T1, ABL1(F317I)-nonphosphorylated (Homo sapiens, UniProt P00519, F317I)
# T1 construct: nonphosphorylated
# Outline: (§1)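 Selectivity profiled across 456 kinases/mutants by KinomeScan binding technology.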
# [2] = target: T2, ABL1(H396P)-phosphorylated (Homo sapiens, UniProt P00519, H396P)
# T2 construct: phosphorylated
# Outline: as §1
# [3] = target: T3, ABL1(T315I)-phosphorylated (Homo sapiens, UniProt P00519, T315I)
# T3 construct: phosphorylated
# Outline: as §1
# ADCK4 = target: T4, ADCK4 (Homo sapiens, UniProt Q96D53)
# T4 construct: gene COQ8B
# Outline: as §1
# CAMKK2 = CAMKK2 (Homo sapiens, UniProt Q96RR4)
# Chain of CAMKK2 (Q96RR4 whole entry): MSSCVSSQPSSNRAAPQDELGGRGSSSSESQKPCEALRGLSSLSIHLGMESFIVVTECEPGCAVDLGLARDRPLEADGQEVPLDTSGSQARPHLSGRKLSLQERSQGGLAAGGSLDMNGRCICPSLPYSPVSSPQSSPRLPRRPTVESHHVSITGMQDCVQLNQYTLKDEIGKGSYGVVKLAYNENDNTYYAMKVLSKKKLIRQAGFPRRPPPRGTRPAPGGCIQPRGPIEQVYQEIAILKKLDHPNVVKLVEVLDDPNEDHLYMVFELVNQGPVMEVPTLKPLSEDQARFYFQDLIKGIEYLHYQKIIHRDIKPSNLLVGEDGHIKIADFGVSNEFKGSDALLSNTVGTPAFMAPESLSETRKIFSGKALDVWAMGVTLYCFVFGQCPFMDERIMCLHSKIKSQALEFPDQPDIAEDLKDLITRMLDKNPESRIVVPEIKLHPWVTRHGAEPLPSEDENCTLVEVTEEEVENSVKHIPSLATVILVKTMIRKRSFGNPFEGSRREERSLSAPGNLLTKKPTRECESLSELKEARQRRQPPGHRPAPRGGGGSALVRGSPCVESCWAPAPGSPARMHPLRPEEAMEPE
# Outline: as §1
# CSNK1D = CSNK1D (Homo sapiens, UniProt P48730)
# Outline: as §1
# CSNK1G1 = CSNK1G1 (Homo sapiens, UniProt Q9HCP0)
# Chain of CSNK1G1 (Q9HCP0 whole entry): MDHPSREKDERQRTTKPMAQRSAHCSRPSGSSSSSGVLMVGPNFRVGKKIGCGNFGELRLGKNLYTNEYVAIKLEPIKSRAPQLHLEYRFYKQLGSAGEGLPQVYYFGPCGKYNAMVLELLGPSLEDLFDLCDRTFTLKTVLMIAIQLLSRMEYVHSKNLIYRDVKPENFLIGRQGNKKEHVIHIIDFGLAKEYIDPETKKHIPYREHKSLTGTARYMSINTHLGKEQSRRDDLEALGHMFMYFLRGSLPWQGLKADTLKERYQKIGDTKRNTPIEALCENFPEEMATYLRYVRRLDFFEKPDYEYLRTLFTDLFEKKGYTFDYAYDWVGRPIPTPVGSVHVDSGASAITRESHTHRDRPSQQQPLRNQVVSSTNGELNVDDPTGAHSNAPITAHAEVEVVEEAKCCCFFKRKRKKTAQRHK
# Outline: as §1
# EGFR(T790M) = EGFR(T790M) (Homo sapiens, UniProt P00533, T790M)
# Outline: as §1
# EPHA2 = EPHA2 (Homo sapiens, UniProt P29317)
# Chain of EPHA2 (P29317 whole entry): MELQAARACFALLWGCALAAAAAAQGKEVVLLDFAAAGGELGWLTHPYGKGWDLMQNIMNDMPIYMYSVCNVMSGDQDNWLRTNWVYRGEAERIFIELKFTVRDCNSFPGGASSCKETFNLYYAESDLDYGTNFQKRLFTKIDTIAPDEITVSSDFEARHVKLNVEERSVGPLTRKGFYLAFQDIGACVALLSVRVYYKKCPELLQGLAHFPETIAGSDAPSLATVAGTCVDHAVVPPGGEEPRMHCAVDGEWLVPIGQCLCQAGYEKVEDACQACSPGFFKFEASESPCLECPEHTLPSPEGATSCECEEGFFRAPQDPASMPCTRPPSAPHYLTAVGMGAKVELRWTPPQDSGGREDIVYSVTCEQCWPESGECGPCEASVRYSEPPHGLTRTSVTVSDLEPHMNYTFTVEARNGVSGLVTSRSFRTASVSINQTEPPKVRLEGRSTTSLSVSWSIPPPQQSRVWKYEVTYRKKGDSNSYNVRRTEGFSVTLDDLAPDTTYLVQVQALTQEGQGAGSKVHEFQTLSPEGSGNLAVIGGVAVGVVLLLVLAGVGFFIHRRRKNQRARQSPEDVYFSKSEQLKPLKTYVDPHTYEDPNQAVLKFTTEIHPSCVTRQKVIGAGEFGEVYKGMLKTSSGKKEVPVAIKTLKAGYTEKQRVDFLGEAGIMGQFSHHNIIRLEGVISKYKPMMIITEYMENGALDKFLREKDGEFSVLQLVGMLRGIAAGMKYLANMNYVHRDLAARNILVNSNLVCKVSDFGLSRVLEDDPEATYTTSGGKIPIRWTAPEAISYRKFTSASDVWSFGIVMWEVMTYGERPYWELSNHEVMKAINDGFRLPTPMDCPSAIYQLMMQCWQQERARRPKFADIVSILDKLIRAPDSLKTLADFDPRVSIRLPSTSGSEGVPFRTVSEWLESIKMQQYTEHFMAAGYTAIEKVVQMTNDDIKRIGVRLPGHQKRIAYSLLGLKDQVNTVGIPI
# Outline: as §1
# EPHA4 = EPHA4 (Homo sapiens, UniProt P54764)
# Chain of EPHA4 (P54764 whole entry): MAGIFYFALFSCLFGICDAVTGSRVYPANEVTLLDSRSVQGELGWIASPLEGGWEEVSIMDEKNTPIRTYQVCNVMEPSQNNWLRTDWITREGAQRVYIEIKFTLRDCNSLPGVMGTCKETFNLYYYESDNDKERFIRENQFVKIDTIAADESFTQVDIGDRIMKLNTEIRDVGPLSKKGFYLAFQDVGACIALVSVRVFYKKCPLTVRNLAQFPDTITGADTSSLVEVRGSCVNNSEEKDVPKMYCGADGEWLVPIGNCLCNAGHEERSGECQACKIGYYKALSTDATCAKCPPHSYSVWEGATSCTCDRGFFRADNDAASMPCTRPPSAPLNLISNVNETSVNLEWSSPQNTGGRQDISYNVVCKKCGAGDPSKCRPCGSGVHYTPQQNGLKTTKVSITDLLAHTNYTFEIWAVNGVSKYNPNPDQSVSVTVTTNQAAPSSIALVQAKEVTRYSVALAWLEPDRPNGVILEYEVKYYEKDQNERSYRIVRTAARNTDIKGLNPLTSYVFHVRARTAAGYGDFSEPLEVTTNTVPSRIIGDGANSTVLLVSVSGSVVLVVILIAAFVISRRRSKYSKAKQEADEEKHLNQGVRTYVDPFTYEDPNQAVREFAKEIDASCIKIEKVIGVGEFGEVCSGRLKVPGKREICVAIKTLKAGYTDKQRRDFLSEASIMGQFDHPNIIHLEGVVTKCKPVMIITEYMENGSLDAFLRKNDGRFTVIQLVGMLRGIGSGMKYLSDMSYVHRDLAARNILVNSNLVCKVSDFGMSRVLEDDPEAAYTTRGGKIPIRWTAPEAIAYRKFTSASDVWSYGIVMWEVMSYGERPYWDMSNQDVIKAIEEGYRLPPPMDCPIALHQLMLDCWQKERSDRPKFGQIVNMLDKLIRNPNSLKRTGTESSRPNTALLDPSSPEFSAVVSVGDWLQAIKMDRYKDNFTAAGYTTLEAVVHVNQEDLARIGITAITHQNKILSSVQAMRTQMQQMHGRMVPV
# Outline: as §1
# EPHA8 = EPHA8 (Homo sapiens, UniProt P29322)
# Chain of EPHA8 (P29322 whole entry): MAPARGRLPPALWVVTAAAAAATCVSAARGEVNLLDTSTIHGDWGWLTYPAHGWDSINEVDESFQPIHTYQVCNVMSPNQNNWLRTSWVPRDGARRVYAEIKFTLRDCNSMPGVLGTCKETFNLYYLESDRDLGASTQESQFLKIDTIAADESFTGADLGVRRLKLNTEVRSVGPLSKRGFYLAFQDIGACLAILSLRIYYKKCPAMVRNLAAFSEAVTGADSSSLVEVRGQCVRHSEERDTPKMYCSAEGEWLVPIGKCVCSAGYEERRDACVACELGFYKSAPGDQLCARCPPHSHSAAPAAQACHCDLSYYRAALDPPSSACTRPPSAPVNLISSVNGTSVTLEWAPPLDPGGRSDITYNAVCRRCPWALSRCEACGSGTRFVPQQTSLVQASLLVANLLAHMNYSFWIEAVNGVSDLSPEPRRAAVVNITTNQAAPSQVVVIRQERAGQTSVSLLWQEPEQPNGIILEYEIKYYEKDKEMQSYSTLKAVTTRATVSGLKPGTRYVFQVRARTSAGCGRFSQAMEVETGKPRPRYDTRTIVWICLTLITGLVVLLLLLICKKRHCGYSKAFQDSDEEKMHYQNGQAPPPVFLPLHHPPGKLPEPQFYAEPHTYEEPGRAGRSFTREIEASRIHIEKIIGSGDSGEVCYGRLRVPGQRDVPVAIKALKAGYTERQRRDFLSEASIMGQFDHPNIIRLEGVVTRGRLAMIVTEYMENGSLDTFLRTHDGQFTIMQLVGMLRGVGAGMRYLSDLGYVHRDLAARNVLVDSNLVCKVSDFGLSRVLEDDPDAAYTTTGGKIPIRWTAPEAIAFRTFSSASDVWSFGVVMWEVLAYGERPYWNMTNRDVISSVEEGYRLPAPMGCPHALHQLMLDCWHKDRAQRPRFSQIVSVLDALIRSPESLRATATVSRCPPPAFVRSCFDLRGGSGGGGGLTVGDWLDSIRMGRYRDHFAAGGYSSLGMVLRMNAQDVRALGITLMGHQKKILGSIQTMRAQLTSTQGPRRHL
# Outline: as §1
# ERK1 = target: T5, ERK1 (Homo sapiens, UniProt P27361)
# T5 construct: gene MAPK3
# Outline: as §1
# IRAK1 = IRAK1 (Homo sapiens, UniProt P51617)
# Outline: as §1
# IRAK3 = IRAK3 (Homo sapiens, UniProt Q9Y616)
# Outline: as §1
# JNK2 = target: T6, JNK2 (Homo sapiens, UniProt P45984)
# T6 construct: gene MAPK9
# Outline: as §1
# MKNK2 = MKNK2 (Homo sapiens, UniProt Q9HBH9)
# Chain of MKNK2 (Q9HBH9 whole entry): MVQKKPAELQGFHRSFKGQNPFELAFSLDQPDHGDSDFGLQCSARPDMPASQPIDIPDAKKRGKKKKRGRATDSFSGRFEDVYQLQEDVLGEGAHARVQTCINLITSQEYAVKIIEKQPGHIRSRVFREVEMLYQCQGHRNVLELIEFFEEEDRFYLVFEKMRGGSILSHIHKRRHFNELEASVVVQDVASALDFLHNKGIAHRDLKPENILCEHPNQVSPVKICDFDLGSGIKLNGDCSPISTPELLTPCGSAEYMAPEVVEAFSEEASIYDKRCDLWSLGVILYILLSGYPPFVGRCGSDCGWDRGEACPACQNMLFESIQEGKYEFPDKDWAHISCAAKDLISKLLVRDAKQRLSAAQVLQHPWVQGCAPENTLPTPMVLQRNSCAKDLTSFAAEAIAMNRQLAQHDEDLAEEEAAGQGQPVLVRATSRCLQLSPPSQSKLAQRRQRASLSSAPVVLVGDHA
# Outline: as §1
# MLK2 = target: T7, MLK2 (Homo sapiens, UniProt Q02779)
# T7 construct: gene MAP3K10
# Outline: as §1
# NEK5 = NEK5 (Homo sapiens, UniProt Q6P3R8)
# Outline: as §1
# PDPK1 = PDPK1 (Homo sapiens, UniProt O15530)
# Chain of PDPK1 (O15530 whole entry): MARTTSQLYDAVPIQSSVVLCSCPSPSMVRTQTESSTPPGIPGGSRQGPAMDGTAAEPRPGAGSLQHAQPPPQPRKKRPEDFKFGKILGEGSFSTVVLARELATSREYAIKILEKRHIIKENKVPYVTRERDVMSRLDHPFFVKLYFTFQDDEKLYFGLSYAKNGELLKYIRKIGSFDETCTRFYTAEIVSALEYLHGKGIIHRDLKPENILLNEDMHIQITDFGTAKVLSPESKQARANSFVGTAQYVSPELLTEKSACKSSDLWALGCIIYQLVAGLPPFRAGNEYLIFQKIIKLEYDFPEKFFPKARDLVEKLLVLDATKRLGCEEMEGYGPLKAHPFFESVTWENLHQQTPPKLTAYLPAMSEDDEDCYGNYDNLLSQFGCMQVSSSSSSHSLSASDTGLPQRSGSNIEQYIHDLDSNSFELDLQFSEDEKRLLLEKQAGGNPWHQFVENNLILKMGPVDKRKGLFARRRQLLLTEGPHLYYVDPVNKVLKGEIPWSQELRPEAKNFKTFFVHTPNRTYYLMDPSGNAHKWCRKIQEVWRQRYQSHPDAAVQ
# Outline: as §1
# PIK3CA(E542K) = PIK3CA(E542K) (Homo sapiens, UniProt P42336, E542K)
# Outline: as §1
# PIK3CA(Q546K) = PIK3CA(Q546K) (Homo sapiens, UniProt P42336, Q546K)
# Outline: as §1
# PRKCD = PRKCD (Homo sapiens, UniProt Q05655)
# Outline: as §1
# PRKG2 = PRKG2 (Homo sapiens, UniProt Q13237)
# Outline: as §1
# RET = RET (Homo sapiens, UniProt P07949)
# Outline: as §1
# RIPK5 = target: T8, RIPK5 (Homo sapiens, UniProt Q6XUX3)
# T8 construct: gene DSTYK
# Outline: as §1
structure (smiles),measurement,setting,value
C=CC(=O)Nc1cc(-n2c(=O)ccc3cnc4ccc(-n5cccn5)cc4c32)ccc1C [CHMFL-BTK-11],remaining binding at 1 µM,[1],100%
same,remaining binding at 1 µM,[2],100%
same,remaining binding at 1 µM,[3],100%
same,remaining binding at 1 µM,ADCK4,100%
same,remaining binding at 1 µM,CAMKK2,78%
same,remaining binding at 1 µM,CSNK1D,100%
same,remaining binding at 1 µM,CSNK1G1,100%
same,remaining binding at 1 µM,EGFR(T790M),58%
same,remaining binding at 1 µM,EPHA2,88%
same,remaining binding at 1 µM,EPHA4,100%
same,remaining binding at 1 µM,EPHA8,92%
same,remaining binding at 1 µM,ERK1,100%
same,remaining binding at 1 µM,IRAK1,87%
same,remaining binding at 1 µM,IRAK3,98%
same,remaining binding at 1 µM,JNK2,100%
same,remaining binding at 1 µM,MKNK2,98%
same,remaining binding at 1 µM,MLK2,94%
same,remaining binding at 1 µM,NEK5,73%
same,remaining binding at 1 µM,PDPK1,90%
same,remaining binding at 1 µM,PIK3CA(E542K),91%
same,remaining binding at 1 µM,PIK3CA(Q546K),97%
same,remaining binding at 1 µM,PRKCD,86%
same,remaining binding at 1 µM,PRKG2,98%
same,remaining binding at 1 µM,RET,100%
same,remaining binding at 1 µM,RIPK5,99%
